Measurements: patent publication US12240862B2, “Inhibitors of peptidylarginine deiminases” (Gilead Sciences, Inc., priority 2020, dated 2025)
pIC50: −log10 of the molar value.

Each compound was assayed against T1, human PAD4 (Homo sapiens, UniProt Q9UM07) (assay: In vitro PAD4 BAEE biochemical assay). Settings: human PAD4, BAEE substrate; 5 nM PAD4, 2 mM calcium chloride, 3 mM BAEE; geometric mean of multiple experiments.
T1 construct: human PAD4 (NM_012387), A2P663, was PCR amplified; His-SUMO (N, cleaved yes); made in house; host or cells: E. coli BL21(DE3)
T1 sequence (Q9UM07 2-663): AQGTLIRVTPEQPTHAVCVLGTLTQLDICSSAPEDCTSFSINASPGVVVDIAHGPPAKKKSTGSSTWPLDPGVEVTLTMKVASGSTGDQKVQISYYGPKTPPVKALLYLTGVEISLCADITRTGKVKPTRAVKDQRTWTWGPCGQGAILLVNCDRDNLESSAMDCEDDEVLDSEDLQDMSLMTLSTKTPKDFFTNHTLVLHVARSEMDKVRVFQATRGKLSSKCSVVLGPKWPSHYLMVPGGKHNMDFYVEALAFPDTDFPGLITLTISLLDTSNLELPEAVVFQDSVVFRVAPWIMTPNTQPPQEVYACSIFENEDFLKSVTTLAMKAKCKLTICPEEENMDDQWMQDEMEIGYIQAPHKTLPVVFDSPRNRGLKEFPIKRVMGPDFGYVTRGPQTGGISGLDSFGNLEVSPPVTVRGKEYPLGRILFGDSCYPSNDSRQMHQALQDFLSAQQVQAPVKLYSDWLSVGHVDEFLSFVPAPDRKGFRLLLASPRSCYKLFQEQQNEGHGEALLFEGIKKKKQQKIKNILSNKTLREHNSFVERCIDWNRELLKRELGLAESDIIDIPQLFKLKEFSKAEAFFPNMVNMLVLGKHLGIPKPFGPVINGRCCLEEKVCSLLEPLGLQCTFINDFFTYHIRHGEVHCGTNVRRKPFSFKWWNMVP
Summary of the method: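 Tag-free recombinant hPAD4 (5 nM), 2 mM CaCl2, 3 mM BAEE, 50 mM MOPS pH 7.6, 2 mM DTT; 30 min compound preincubation, 2 h reaction, all 25 °C. EDTA quench; ammonia read via o-phthalaldehyde amine coupling, 1 h.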

SMILES	pIC50
CCc1ccc2cc(-c3nc4cc(C(=O)N5[C@H]6CC[C@@H]5[C@H](N)C6)cc(OC)n4c3C)n(CCC3CC3)c2n1 [Example 505, [(1~{R},2~{R},4~{S})-2-amino-7-azabicyclo [2.2.1]heptan-7-yl]-[2-[1-(2-cyclopropylethyl)-6-ethylpyrrolo[2,3-b]pyridin-2-yl]-5-methoxy-3-methylimidazo[1,2-a]pyridin-7-yl]methanone]	6.77
CCc1ccc2cc(-c3nc4cc(C(=O)N5[C@H]6CC[C@@H]5[C@H](N)C6)cc(OC)n4c3C)[nH]c2n1 [Example 506, [(1~{R},2~{R},4~{S})-2-amino-7-azabicyclo [2.2.1]heptan-7-yl]-[2-(6-ethyl-1~{H}-pyrrolo[2,3-b]pyridin-2-yl)-5-methoxy-3-methylimidazo[1,2-a]pyridin-7-yl]methanone]	4.37
CCc1ccc2cc(-c3nc4cc(C(=O)N5[C@H]6CC[C@@H]5[C@H](N)C6)cc(OC)n4c3C)n(CCC(C)(C)C#N)c2n1 [Example 508, 4-[2-[7-[(1~{R},2~{R}, 4~{S})-2-amino-7-azabicyclo[2.2.1]heptane-7-carbonyl]-5-methoxy-3-methylimidazo[1,2-a]pyridin-2-yl]-6-ethylpyrrolo [2,3-b]pyridin-1-yl]-2,2-dimethylbutanenitrile]	6.56
CCc1ccc2cc(-c3nc4cc(C(=O)N5[C@H]6CC[C@@H]5[C@H](N)C6)cc(OC)n4c3C)n(CC3CCCC3)c2n1 [Example 509, [(1~{R},2~{R},4~{S})-2-amino-7-azabicyclo [2.2.1]heptan-7-yl]-[2-[1-(cyclopentylmethyl)-6-ethylpyrrolo[2,3-b]pyridin-2-yl]-5-methoxy-3-methylimidazo[1,2-a]pyridin-7-yl]methanone]	6.18
CCc1ccc2cc(-c3nc4cc(C(=O)N5[C@H]6CC[C@@H]5[C@H](N)C6)cc(OC)n4c3C)n(-c3nccs3)c2n1 [Example 510, [(1~{R},2~{R},4~{S})-2-amino-7-azabicyclo [2.2.1]heptan-7-yl]-[2-[6-ethyl-1-(1,3-thiazol-2-yl)pyrrolo[2,3-b]pyridin-2-yl]-5-methoxy-3-methylimidazo[1,2-a]pyridin-7-yl]methanone]	4.77
CCc1ccc2cc(-c3nc4cc(C(=O)N5[C@H]6CC[C@@H]5[C@H](N)C6)cc(OC)n4c3C)n(-c3cnc(C)s3)c2n1 [Example 511, [(1~{R},2~{R},4~{S})-2-amino-7-azabicyclo [2.2.1]heptan-7-yl]-[2-[6-ethyl-1-(2-methyl-1,3-thiazol-5-yl)pyrrolo [2,3-b]pyridin-2-yl]-5-methoxy-3-methylimidazo [1,2-a]pyridin-7-yl] methanone]	5.33
CCc1ccc2cc(-c3nc4cc(C(=O)N5[C@H]6CC[C@@H]5[C@H](N)C6)cc(OC)n4c3C)n(-c3ccccc3)c2n1 [Example 512, [(1~{R},2~{R},4~{S})-2-amino-7-azabicyclo [2.2.1]heptan-7-yl]-[2-(6-ethyl-1-phenylpyrrolo [2,3-b]pyridin-2-yl)-5-methoxy-3-methylimidazo [1,2-a]pyridin-7-yl]methanone]	4.75
CCc1ccc2cc(-c3nc4cc(C(=O)N5[C@H]6CC[C@@H]5[C@H](N)C6)cc(OC)n4c3C)n(Cc3cccnc3)c2n1 [Example 513, [(1~{R},2~{R},4~{S})-2-amino-7-azabicyclo [2.2.1]heptan-7-yl]-[2-[6-ethyl-1-(pyridin-3-ylmethyl)pyrrolo [2,3-b]pyridin-2-yl]-5-methoxy-3-methylimidazo[1,2-a]pyridin-7-yl]methanone]	6.75
COc1cc(C(=O)N2[C@H]3CC[C@@H]2[C@H](N)C3)cc2nc(-c3cc4ccc(C5CCCCN5C(=O)C(C)(C)C)nc4n3CC3CC3)c(C)n12 (stereo partly drawn) [Example 514, 1-(2-(2-(7-((1R,2R,4S)-2-amino-7-azabicyclo[2.2.1]heptane-7-carbonyl)-5-methoxy-3-methylimidazo[1,2-a]pyridin-2-yl)-1-(cyclopropylmethyl)-1H-pyrrolo[2,3-b]pyridin-6-yl)piperidin-1-yl)-2,2-dimethylpropan-1-one]	6.13
COc1cc(C(=O)N2[C@H]3CC[C@@H]2[C@H](N)C3)cc2nc(-c3cc4ccc(C5CCCN(C(=O)C(C)(C)C)C5)nc4n3CC3CC3)c(C)n12 (stereo partly drawn) [Example 517, 1-[3-[2-[7-[(1~{R},2~{R}, 4~{S})-2-amino-7-azabicyclo[2.2.1]heptane-7-carbonyl]-5-methoxy-3-methylimidazo[1,2-a]pyridin-2-yl]-1-(cyclopropylmethyl)pyrrolo[2,3-b]pyridin-6-yl]piperidin-1-yl]-2,2-dimethylpropan-1-one]	6.21
COc1cc(C(=O)N2[C@H]3CC[C@@H]2[C@H](N)C3)cc2nc(-c3cc4ccc(C5CCCN(C(=O)N6CCCC6)C5)nc4n3CC3CC3)c(C)n12 (stereo partly drawn) [Example 518, [(1~{R},2~{R},4~{S})-2-amino-7-azabicyclo [2.2.1]heptan-7-yl]-[2-[1-(cyclopropylmethyl)-6-[1-(pyrrolidine-1-carbonyl)piperidin-3-yl]pyrrolo [2,3-b]pyridin-2-yl]-5-methoxy-3-methylimidazo [1,2-a]pyridin-7-yl] methanone]	6.46

These reach a higher pIC50. Values come first.

pIC50	SMILES
6.94	CCc1ccc2cc(-c3nc4cc(C(=O)N5[C@H]6CC[C@@H]5[C@H](N)C6)cc(OC)n4c3C)n(CC3CC3C)c2n1 (stereo partly drawn) [Example 503, [(1~{R},2~{R},4~{S})-2-amino-7-azabicyclo [2.2.1]heptan-7-yl]-[2-[6-ethyl-1-[(2-methylcyclopropyl)methyl]pyrrolo[2,3-b]pyridin-2-yl]-5-methoxy-3-methylimidazo[1,2-a]pyridin-7-yl]methanone]
6.88	CCc1ccc2cc(-c3nc4cc(C(=O)N5[C@H]6CC[C@@H]5[C@H](N)C6)cc(OC)n4c3C)n(CC(F)(F)F)c2n1 [Example 504, [(1~{R},2~{R},4~{S})-2-amino-7-azabicyclo [2.2.1]heptan-7-yl]-[2-[6-ethyl-1-(2,2,2-trifluoroethyl)pyrrolo[2,3-b]pyridin-2-yl]-5-methoxy-3-methylimidazo[1,2-a]pyridin-7-yl]methanone]
6.82	CCc1ccc2cc(-c3nc4cc(C(=O)N5[C@H]6CC[C@@H]5[C@H](N)C6)cc(OC)n4c3C)n(Cc3ccncc3)c2n1 [Example 507, [(1~{R},2~{R},4~{S})-2-amino-7-azabicyclo [2.2.1]heptan-7-yl]-[2-[6-ethyl-1-(pyridin-4-ylmethyl)pyrrolo[2,3-b]pyridin-2-yl]-5-methoxy-3-methylimidazo[1,2-a]pyridin-7-yl]methanone]
6.90	COc1cc(C(=O)N2[C@H]3CC[C@@H]2[C@H](N)C3)cc2nc(-c3cc4ccc(C5CCCCN5C(C)=O)nc4n3CC3CC3)c(C)n12 (stereo partly drawn) [Example 515, 1-[2-[2-[7-[(1~{R},2~{R}, 4~{S})-2-amino-7-azabicyclo[2.2.1]heptane-7-carbonyl]-5-methoxy-3-methylimidazo[1,2-a]pyridin-2-yl]-1-(cyclopropylmethyl)pyrrolo[2,3-b]pyridin-6-yl]piperidin-1-yl] ethenone]
7.18	COc1cc(C(=O)N2[C@H]3CC[C@@H]2[C@H](N)C3)cc2nc(-c3cc4ccc(C(C)Cc5nnc(C)o5)nc4n3CC3CC3)c(C)n12 (stereo partly drawn) [Example 516, [(1~{R},2~{R},4~{S})-2-amino-7-azabicyclo [2.2.1]heptan-7-yl]-[2-[1-(cyclopropylmethyl)-6-[1-(5-methyl-1,3,4-oxadiazol-2-yl)propan-2-yl]pyrrolo[2,3-b]pyridin-2-yl]-5-methoxy-3-methylimidazo[1,2-a]pyridin-7-yl]methanone]
7.00	COc1cc(C(=O)N2[C@H]3CC[C@@H]2[C@H](N)C3)cc2nc(-c3cc4ccc(C(C)CC(=O)N5CC(F)(F)C5)nc4n3CC3CC3)c(C)n12 (stereo partly drawn) [Example 519, 3-[2-[7-[(1~{R},2~{R}, 4~{S})-2-amino-7-azabicyclo[2.2.1]heptane-7-carbonyl]-5-methoxy-3-methylimidazo[1,2-a]pyridin-2-yl]-1-(cyclopropylmethyl)pyrrolo[2,3-b]pyridin-6-yl]-1-(3,3-difluoroazetidin-1-yl) butan-1-one]
7.13	COc1cc(C(=O)N2[C@H]3CC[C@@H]2[C@H](N)C3)cc2nc(-c3cc4ccc(C(C)CC(N)=O)nc4n3CC3CC3)c(C)n12 (stereo partly drawn) [Example 520, 3-[2-[7-[(1~{R},2~{R}, 4~{S})-2-amino-7-azabicyclo[2.2.1]heptane-7-carbonyl]-5-methoxy-3-methylimidazo[1,2-a]pyridin-2-yl]-1-(cyclopropylmethyl)pyrrolo[2,3-b]pyridin-6-yl]butanamide]
6.91	COc1cc(C(=O)N2[C@H]3CC[C@@H]2[C@H](N)C3)cc2nc(-c3cc4ccc(C(C)CC(=O)NC(C)(C)C)nc4n3CC3CC3)c(C)n12 (stereo partly drawn) [Example 521, 3-[2-[7-[(1~{R},2~{R}, 4~{S})-2-amino-7-azabicyclo[2.2.1]heptane-7-carbonyl]-5-methoxy-3-methylimidazo[1,2-a]pyridin-2-yl]-1-(cyclopropylmethyl)pyrrolo [2,3-b]pyridin-6-yl]-~{N}-~{tert}-butylbutanamide]
6.87	COc1cc(C(=O)N2[C@H]3CC[C@@H]2[C@H](N)C3)cc2nc(-c3cc4ccc([C@H](C)CC(=O)N5CCCC5)nc4n3CC3CC3)c(C)n12 [Example 522, (3~{R})-3-[2-[7-[(1~{R},2~{R},4~{S})-2-amino-7-azabicyclo[2.2.1]heptane-7-carbonyl]-5-methoxy-3-methylimidazo [1,2-a]pyridin-2-yl]-1-(cyclopropylmethyl)pyrrolo[2,3-b]pyridin-6-yl]-1-pyrrolidin-1-ylbutan-1-one]
7.23	COc1cc(C(=O)N2[C@H]3CC[C@@H]2[C@H](N)C3)cc2nc(-c3cc4ccc([C@@H](C)CC(=O)N5CCCC5)nc4n3CC3CC3)c(C)n12 [Example 523, (3~{S})-3-[2-[7-[(1~{R},2~{R},4~{S})-2-amino-7-azabicyclo[2.2.1]heptane-7-carbonyl]-5-methoxy-3-methylimidazo [1,2-a]pyridin-2-yl]-1-(cyclopropylmethyl)pyrrolo[2,3-b]pyridin-6-yl]-1-pyrrolidin-1-ylbutan-1-one]
